From PubChem BioAssay (NCI)
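Where inhibition never reached the appropriate level, the endpoint shown equals the highest concentration tested. Otherwise, values were interpolated linearly from a five-concentration, 48-hour dose response in 96-well plates. Definition used: TGI = concentration required for complete inhibition of growth.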

Columns and labels:
Assay in all cases: inhibition of tumour cell growth, NCI panel, 48 h
786-0 renal = tested on: 786-0 renal
A498 renal = tested on: A498 renal
A549 NSCLC = tested on: A549 NSCLC
ACHN renal = tested on: ACHN renal
CAKI-1 renal = tested on: CAKI-1 renal
CCRF-CEM leukemia = tested on: CCRF-CEM leukemia
COLO 205 colon = tested on: COLO 205 colon
DLD-1 colon = tested on: DLD-1 colon
DMS 273 small cell lung = tested on: DMS 273 small cell lung
EKVX NSCLC = tested on: EKVX NSCLC
HCT-116 colon = tested on: HCT-116 colon
HCT-15 colon = tested on: HCT-15 colon
HOP-18 NSCLC = tested on: HOP-18 NSCLC
HOP-62 NSCLC = tested on: HOP-62 NSCLC
HOP-92 NSCLC = tested on: HOP-92 NSCLC
HT29 colon = tested on: HT29 colon
IGROV1 ovarian = tested on: IGROV1 ovarian
K-562 leukemia = tested on: K-562 leukemia
KM12 colon = tested on: KM12 colon
KM20L2 colon = tested on: KM20L2 colon
LOX IMVI melanoma = tested on: LOX IMVI melanoma
M19-MEL melanoma = tested on: M19-MEL melanoma
MALME-3M melanoma = tested on: MALME-3M melanoma
NCI-H23 lung = tested on: NCI-H23 lung
NCI-H460 lung = tested on: NCI-H460 lung
OVCAR-3 ovarian = tested on: OVCAR-3 ovarian
OVCAR-4 ovarian = tested on: OVCAR-4 ovarian
OVCAR-5 ovarian = tested on: OVCAR-5 ovarian
OVCAR-8 ovarian = tested on: OVCAR-8 ovarian
RPMI-8226 leukemia = tested on: RPMI-8226 leukemia
RXF 393 renal = tested on: RXF 393 renal
SF-268 CNS = tested on: SF-268 CNS
SF-295 CNS = tested on: SF-295 CNS
SF-539 CNS = tested on: SF-539 CNS
SK-MEL-2 melanoma = tested on: SK-MEL-2 melanoma
SK-MEL-28 melanoma = tested on: SK-MEL-28 melanoma
SK-MEL-5 melanoma = tested on: SK-MEL-5 melanoma
SN12C renal = tested on: SN12C renal
SNB-19 CNS = tested on: SNB-19 CNS
SNB-75 CNS = tested on: SNB-75 CNS
SNB-78 CNS = tested on: SNB-78 CNS
SR leukemia = tested on: SR leukemia
SW-620 colon = tested on: SW-620 colon
TK-10 renal = tested on: TK-10 renal
U251 CNS = tested on: U251 CNS
UACC-257 melanoma = tested on: UACC-257 melanoma
UACC-62 melanoma = tested on: UACC-62 melanoma
XF 498 CNS = tested on: XF 498 CNS
DMS 114 small cell lung = tested on: DMS 114 small cell lung
HCC-2998 colon = tested on: HCC-2998 colon
HL-60(TB) leukemia = tested on: HL-60(TB) leukemia
M14 melanoma = tested on: M14 melanoma
MOLT-4 leukemia = tested on: MOLT-4 leukemia
NCI-H522 lung = tested on: NCI-H522 lung
RXF-631 renal = tested on: RXF-631 renal
SK-OV-3 ovarian = tested on: SK-OV-3 ovarian
UO-31 renal = tested on: UO-31 renal

COCOCc1cc(OCc2ccccc2)c(OC)cc1Br
TGI (786-0 renal): > 100 µM
TGI (A498 renal): > 100 µM
TGI (A549 NSCLC): > 100 µM
TGI (ACHN renal): > 100 µM
TGI (CAKI-1 renal): > 100 µM
TGI (CCRF-CEM leukemia): > 100 µM
TGI (COLO 205 colon): > 100 µM
TGI (DLD-1 colon): > 100 µM
TGI (DMS 273 small cell lung): > 100 µM
TGI (EKVX NSCLC): > 100 µM
TGI (HCT-116 colon): > 100 µM
TGI (HCT-15 colon): > 100 µM
TGI (HOP-18 NSCLC): > 100 µM
TGI (HOP-62 NSCLC): > 100 µM
TGI (HOP-92 NSCLC): > 100 µM
TGI (HT29 colon): > 100 µM
TGI (IGROV1 ovarian): > 100 µM
TGI (K-562 leukemia): > 100 µM
TGI (KM12 colon): > 100 µM
TGI (KM20L2 colon): > 100 µM
TGI (LOX IMVI melanoma): > 100 µM
TGI (M19-MEL melanoma): > 100 µM
TGI (MALME-3M melanoma): > 100 µM
TGI (NCI-H23 lung): > 100 µM
TGI (NCI-H460 lung): > 100 µM
TGI (OVCAR-3 ovarian): > 100 µM
TGI (OVCAR-4 ovarian): > 100 µM
TGI (OVCAR-5 ovarian): > 100 µM
TGI (OVCAR-8 ovarian): > 100 µM
TGI (RPMI-8226 leukemia): > 100 µM
TGI (RXF 393 renal): > 100 µM
TGI (SF-268 CNS): > 100 µM
TGI (SF-295 CNS): > 100 µM
TGI (SF-539 CNS): > 100 µM
TGI (SK-MEL-2 melanoma): > 100 µM
TGI (SK-MEL-28 melanoma): > 100 µM
TGI (SK-MEL-5 melanoma): > 100 µM
TGI (SN12C renal): > 100 µM
TGI (SNB-19 CNS): > 100 µM
TGI (SNB-75 CNS): > 100 µM
TGI (SNB-78 CNS): > 100 µM
TGI (SR leukemia): > 100 µM
TGI (SW-620 colon): > 100 µM
TGI (TK-10 renal): > 100 µM
TGI (U251 CNS): > 100 µM
TGI (UACC-257 melanoma): > 100 µM
TGI (UACC-62 melanoma): > 100 µM
TGI (XF 498 CNS): > 100 µM

Cc1ccc(S(=O)(=O)N/N=C/c2oc(-c3ccccc3Cl)c(-c3ccccc3Cl)c2[N+](=O)[O-])cc1
TGI (786-0 renal): 72 µM
TGI (A498 renal): 61.8 µM
TGI (A549 NSCLC): > 100 µM
TGI (ACHN renal): 39.2 µM
TGI (CAKI-1 renal): > 100 µM
TGI (CCRF-CEM leukemia): > 100 µM
TGI (COLO 205 colon): > 100 µM
TGI (DLD-1 colon): 47.9 µM
TGI (DMS 114 small cell lung): 76.7 µM
TGI (EKVX NSCLC): > 100 µM
TGI (HCC-2998 colon): 47.9 µM
TGI (HCT-116 colon): 46.6 µM
TGI (HL-60(TB) leukemia): 39.9 µM
TGI (HOP-62 NSCLC): 43.5 µM
TGI (HOP-92 NSCLC): 55 µM
TGI (HT29 colon): > 100 µM
TGI (IGROV1 ovarian): 73.3 µM
TGI (K-562 leukemia): > 100 µM
TGI (KM12 colon): > 100 µM
TGI (KM20L2 colon): 37.9 µM
TGI (M14 melanoma): > 100 µM
TGI (M19-MEL melanoma): 65 µM
TGI (MALME-3M melanoma): 71.4 µM
TGI (MOLT-4 leukemia): > 100 µM
TGI (NCI-H23 lung): 29.3 µM
TGI (NCI-H460 lung): 29.9 µM
TGI (NCI-H522 lung): 26 µM
TGI (OVCAR-3 ovarian): > 100 µM
TGI (OVCAR-4 ovarian): > 100 µM
TGI (OVCAR-5 ovarian): 34.2 µM
TGI (OVCAR-8 ovarian): > 100 µM
TGI (RPMI-8226 leukemia): 30.3 µM
TGI (RXF 393 renal): 28.4 µM
TGI (RXF-631 renal): 60.3 µM
TGI (SF-268 CNS): > 100 µM
TGI (SF-295 CNS): > 100 µM
TGI (SF-539 CNS): 46.1 µM
TGI (SK-MEL-2 melanoma): 76.9 µM
TGI (SK-MEL-28 melanoma): 62.9 µM
TGI (SK-MEL-5 melanoma): 43.1 µM
TGI (SK-OV-3 ovarian): > 100 µM
TGI (SN12C renal): 66.6 µM
TGI (SNB-19 CNS): 64 µM
TGI (SR leukemia): 64.6 µM
TGI (SW-620 colon): > 100 µM
TGI (TK-10 renal): > 100 µM
TGI (UACC-257 melanoma): > 100 µM
TGI (UACC-62 melanoma): 65.8 µM
TGI (UO-31 renal): 36 µM
